From patent US4847273A, “Dihydropyridine derivatives” (Hoffmann-La Roche Inc., priority 1985, dated 1989)

Experiments:
[1] = Haemodynamic parameters in the narcotized dog (test B); format: in vivo; conditions: 0.03 mg/kg p.o.
Excerpt: B. Haemodynamic parameters in the narcotized dog:
The 4 most important measurement parameters (with respective measurement units) of the haemodynamic experiment are: (1) CBF: Coronary Blood Flow (in ml/min)--the velocity of blood flow through the coronary arteries; (2) HR: heart rate (in beats/min)--the heart frequency; (3) BP: blood pressure (in mm Hg)--the blood pressure; and (4) dp/dt: rate of increase in left ventricular pressure (in mm Hg/sec)--the rate of increase of the left ventricular pressure, as a measurement of the contractility force of the heart. The values are given as the %maximum variation from the initial value (Δ%) and the duration of this variation (t) per dosage administered.
There is thus obtained not only an overall picture of the activity of the substance, but also an estimation as to the potential selectivity for a specific part of the circulatory system in the entire organism. After the administration of an anaesthetic, the dog is intubated and respired artificially. Blood pH, pCO2, pO2 and haemoglobin are measured hourly with a blood-gas analyzer. The blood pressure (systolic and diastolic) is measured with a probe in the aorta abdominalis. The heart frequency is recorded by means of a tachometer, which is disengaged from the pressure pulse. For the other measurements the heart must firstly be opened in order that a probe can be inserted in the left ventricle (heart chamber) for the pressure measurements (dp/dt). The coronary blood flow is measured with a flowing probe in the left coronary artery (descendens).

[2] = tested on: ^3 H-nifedipine (or ^3 H-nitrendipine) binding, rabbit or guinea pig heart membranes; experiment: 3H-Nifedipine binding determination on homogenates or partially-cleaned membranes of rabbit or guinea pig heart (test A); conditions: maximum inhibition of specific binding; nifedipine established as 100%
Description: A. ^3 H-Nifedipine binding determination:
The determination is carried out on homogenates or on partially-cleaned membranes of rabbit or guinea pig heart. The reaction mixture (0.3 ml) consists of 0.2-0.8 mg of membrane protein, 1 nM of ^3 H-nifedipine (or 0.25 nM of ^3 H-nitrendipine) and various concentrations of the test substance. The incubation lasts 30 minutes at 25° C. or 37° C. and is stopped by dilution with the incubation buffer; a filtration is subsequently carried out. The filter-bound radioactivity is measured with a scintillation counter. Specific binding, that is, receptor-bound, is defined as the difference between total and unspecific-bound radioactivity. The unspecific binding is determined in the presence of an excess of non-radioactive nifedipine (1 μM).
The activity (potency) of a compound in this test is defined by the IC50 and %maximum inhibition values (%max. inhibition). The IC50 is the substance concentration (in mol/l) which produces a half-maximum inhibition of the specific ^3 H-nifedipine (or ^3 H-nitrendipine) binding. The maximum inhibition of the specific binding is given by the %maximum inhibition value; this value is established as 100% for the reference compound nifedipine. Both parameters are extrapolated from a concentration-binding curve.

% max. inhib. [2] | SMILES | Bp (blood pressure), % maximum variation from the initial value (Δ%) [1] | Bp, duration of variation (t) [1] | CBF (Coronary Blood Flow), % maximum variation from the initial value (Δ%) [1] | CBF, duration of variation (t) [1] | HR (heart rate), % maximum variation from the initial value (Δ%) [1] | HR, duration of variation (t) [1] | dp/dt (rate of increase in left ventricular pressure), % maximum variation from the initial value (Δ%) [1] | dp/dt, duration of variation (t) [1]
100% | CCCCN(C)S(=O)(=O)C1=C(C)NC(C)=C(C(=O)OC(C)C)C1c1cccc([N+](=O)[O-])c1 (stereo not drawn) [B, 5-(butylmethylsulfamoyl)-1,4-dihydro-2,6-dimethyl-4-(3-nitrophenyl)nicotinic acid isopropyl ester] | -30% | 24 ' | 78% | 40 ' | -11% | > 30 ' | -2% | 20 '
100% | CCCOCCOC(=O)C1=C(C)NC(C)=C(S(=O)(=O)N(C)C)C1c1cccc([N+](=O)[O-])c1 (stereo not drawn) [A, 5-(dimethylsulfamoyl)-1,4-dihydro-2,6-dimethyl-4-(3-nitrophenyl)nicotinic acid 2-propoxyethyl ester] | -55% | 60 ' | 50% | 60 ' | -19% | 40 ' | -42% | 60 '
100% | COCCN(C)S(=O)(=O)C1=C(C)NC(C)=C(C(=O)OC(C)C)C1c1cccc([N+](=O)[O-])c1 (stereo not drawn) [C, 1,4-dihydro-2,6-dimethyl-5-[(2-methoxyethyl)methylsulfamoyl]-4-(3-nitrophenyl)nicotinic acid isopropyl ester] | -32% | > 60 ' | 108% | 20 ' | -11% | > 60 ' | -16% | > 60 '
